In one test the test system is Type 1 phosphatase (PP1). The conditions noted are these: cited from earlier work.
The test system of another test is PP2A. Particulars: cited from earlier work.
The subject of another test is PP2B. Particulars: cited from earlier work.
Another test concerns PP2C. Particulars: cited from earlier work.
The test system of another test is rat mucosal mast cell. The test is described as follows: inhibition of rat mucosal mast cell degranulation in vitro (histamine release). The class given is cell-based. The conditions noted are these: read-out: ID20 for histamine release. An excerpt: It is not necessary to the operability of the present invention that each member of the foregoing classes inhibits mast cell degranulation to the same extent. The ability of a particular substance to inhibit mast cell degranulation can be readily determined empirically. Thus, mast cells from rats (pieces of small intestine) or humans (intestinal biopsies) can be obtained; otherwise, RBL cells or immortalized human mucosal-like mast cells (HMC-1) are kept in culture. Any of these cells then are exposed to various concentrations of a putative inhibitory compound, to allow for action by the putative inhibitor at critical sites. Efficacy with respect to inhibition of mast cell degranulation then is ascertained; that is, the intestinal biopsies, explants or cultured cells thus treated are used as such or washed free of unbound test compound before exposure to a stimulus known to induce mast cell degranulation. A compound suitable for use in accordance with the present invention is recognized as one that prevents the stimulus from causing degranulation, presumably by binding to specific receptors or by inactivating a crucial step in the degranulation process.
A pharmaceutically effective dose for a given mast cell degranulation-blocking agent can be approximated by its ID20, which is the dose necessary to cause 20% inhibition in mast cells when applied to mast cells stimulated in vitro.

Another test has as its system irritable bowel syndrome. The test is described as follows: patient treatment, irritable bowel syndrome. The class given is in vivo, human. Particulars: person; for pain: two months.
Test [1] relates to abdominal migraine. Particulars: in vivo; cited from earlier work.
In test [2] the test system is gastrointestinal mast cells. The conditions noted are these: cited from earlier work.
For a further test, the system named is intracranial mast cells. The conditions noted are these: cited from earlier work.
For a further test, the system named is mast cell. The conditions noted are these: effective dose causing 20% secretion; cited from earlier work.
In test [3] the test system is rat mast cell protease II (RMCPII). The test is described as follows: rat-immobilization assay, stress model, intestinal RMCPII. The class given is in vivo. The conditions noted are these: for rat intestinal RMCPII, pre-treated w/ ketotifen: 1 mg/kg i.p. twice daily for four days before immobilization, n = 3. How it is done: An assay by which efficacy of a mast cell degranulation-blocking agent can be tested systemically in the present context is the rat-immobilization assay, […] After the immobilization, a specific gastrointestinal mast cell mediator, rat mast cell protease II (RMCPII), is measured. This assay is accepted as a non-ulcerogenic model of stress. See Williams et al., Am. J. PhysioI. 253:582-86 (1987).
Ketotifen was administered intraperitoneally to rats (1 mg/kg body weight, twice daily) for four days prior to immobilization.

Test [4] concerns rat mucosal mast cell (MMC). The test is described as follows: RMCPII release from rat ileal explants, toxin A. The conditions noted are these: for RMCPII released, Ketotifen + Toxin A: ketotifen 1 mg/kg twice daily intragastrically 4 days, toxin A 5 μg/ml, n = 6. The class given is cell-based. The protocol:
The following experiment was performed in order to evaluate rat mucosal mast cell (MMC) degranulation by measuring rat mast cell protease II (RMCPII), a specific marker for MMC, and by electron microscopy.
Rats were treated intragastrically for four (4) days with either 0.5 ml of saline containing ketotifen (1 mg/kg twice daily) or saline alone. On day five, the animals were euthanized, ileum was removed and ileal explants were placed in organ culture. The explants were incubated at 37° C. in a medium containing either 5 μg/ml of toxin A in 0.01 ml of 50 mM Tris buffer, or buffer alone. Aliquots (50 μl) of medium were collected at specified times and RMCPII levels were determined. Results are expressed in Table 4 as nanograms of RMCPII released per milligram of tissue wet weight (Pothoulakis et al., Gastroenterology 105:701-707, 1993).

Test [5] relates to rat basophilic leukemia (RBL) cells. Particulars: Kouretas et al. 1991; cited from earlier work.
Test [6] has as its system abdominal migraine. The test is described as follows: patient treatment, abdominal migraine. The class given is in vivo, human. Particulars: person; 3 μg/day subcutaneous, four months. The protocol: A patient with a two-year history of abdominal migraine, experienced constant gastrointestinal pain which was considerably worse immediately premenstrually. After treatment with the Gn-RH analogue LUPRON (3 μg/day subcutaneous injection) for four months, they were symptom-free.

[7] abbreviates: inhibitory dose causing 20% inhibition, rat mucosal mast cells in vitro.

“Also recorded” adds a separate entry of the source. Structures can show the parent of a compound that is named as a salt. Where two headings read alike, the source gives them in different places.

We go through 15 molecules from patent publication US5648355A, “Method of treatment of endogenous, painful gastrointestinal conditions of non-inflammatory, non-ulcerative origin” (priority 1994, dated 1997).

For `C=C1[C@@H](O)[C@@H]2O[C@]3(CC[C@H](/C=C/[C@@H](C)[C@@H]4CC(C)=C[C@@]5(O[C@H](C[C@@](C)(O)C(=O)O)CC[C@H]5O)O4)O3)CC[C@H]2O[C@@H]1[C@@H](O)C[C@H](C)[C@H]1O[C@@]2(CCCCO2)CC[C@H]1C` [okadaic acid], the “effect on PP1” value in the test on Type 1 phosphatase (PP1) was “inactivated”. The “effect on PP2A” value with PP2A is “inhibited”. The “effect on PP2B” value in the test on PP2B is given as “inhibited”. The “effect on PP2C” value in the test with PP2C is “insensitive”.
For the molecule `O=c1[nH]c2ccccc2n1CCCN1CCN(C(c2ccccc2)c2ccccc2)CC1` [Oxatomide], the IC20 in the test on rat mucosal mast cell (setting [7]) turned out to be 100 nM.
Turning to `CNCCc1c[nH]cn1` [N^α -methyl histamine], the IC20 in the test on rat mucosal mast cell (Rattus norvegicus) was found to be 100 nM.
`OCCOCCN1CCN(C(c2ccccc2)c2ccc(Cl)cc2)CC1` (centres unmarked) [hydroxyzine hydrochloride]: in the test on irritable bowel syndrome (50 mg/day, three months), the gastrointestinal discomfort result is listed as “almost completely eliminated”; the “professional and family responsibilities” value is “able to resume their professional and family responsibilities”. Also, in the test with irritable bowel syndrome (attempted withdrawal), the “symptoms of irritable bowel syndrome on withdrawal” value was “marked increase in symptoms of irritable bowel syndrome”. Further, in the test with irritable bowel syndrome (resumed medication), the “symptoms on resuming the medication” value was “symptoms disappeared”.
With `OCCOCCN1CCN(C(c2ccccc2)c2ccc(Cl)cc2)CC1` (centres unmarked) [hydroxyzine pamoate], in the test on irritable bowel syndrome (50 mg/day, 4 months), the professional activities entry is recorded as “able to resume their professional activities” and the “symptoms of irritable bowel syndrome” value is on record as “noticeable improvement of their symptoms”.
Take `CC(C)NCC(O)COc1cccc2ccccc12` (centres unmarked) [propranolol]: the “effect in abdominal migraine” value in the test on abdominal migraine [1] is “seem not to work”.
Turning to `O=C(O)c1cc(=O)c2c(OCC(O)COc3cccc4oc(C(=O)O)cc(=O)c34)cccc2o1` [disodium cromoglycate], the “inhibition of gastrointestinal / mucosal mast cells” value in test [2] is given as “the former but not the latter are inhibited; also recorded: do not have an inhibitory effect specifically on mucosal mast cells”. In addition, in the test on intracranial mast cells, the “inhibition of intracranial mast cells” value is “inhibited”.
Regarding `CN(C)CCOC(c1ccccc1)c1ccccc1` [Diphenhydramine], the “ED20 for Histamine Release” value in the test with mast cell is reported as 10^-3 M.
For the molecule `CN1CCC(=C2c3ccccc3CC(=O)c3sccc32)CC1` [Ketotifen], the IC20 with rat mucosal mast cell (Rattus norvegicus) came out at 10000 nM. Besides, the “rat intestinal RMCPII, pre-treated w/ ketotifen” value was determined as 0.5 ng/mL in test [3] (60 min) and 0.8 ng/mL in test [3] (120 min, p < 0.001 vs. immobilized). Further, the “secretion of RMCPII during stress (in words)” value in test [3] (rat-immobilization assay) is listed as “preventing secretion of RMCPII”. In addition, the “RMCPII released, Ketotifen + Toxin A” value in test [4] (30 min) is given as 2.9 ± 1.0 nanograms of RMCPII released p; in [4] (60 min, p < 0.05 vs Toxin A), 3.0 ± 1.1 nanograms of RMCPII released p; in test [4] (120 min, p < 0.01 vs Toxin A), 4.2 ± 0.9 nanograms of RMCPII released p; in [4] (180 min, p < 0.01 vs Toxin A), 6.7 ± 1.9 nanograms of RMCPII released p. For the same molecule, in [4] (toxin A stimulus), the “release of RMCPII from rat ileal explants (in words)” value is listed as “effectively inhibits the release of RMCPII”. Besides, the pain entry with irritable bowel syndrome (4 mg/day) is reported as “their pain subsided significantly”.
As to `CN(C)CCC(c1ccc(Cl)cc1)c1ccccn1` (centres unmarked) [Clorphenyramine], in the test with mast cell, the “ED20 for Histamine Release” value is on record as 10^-3 M.
As to `CC(CN1c2ccccc2Sc2ccccc21)N(C)C` (centres unmarked) [Promethazine], in the test with mast cell, the “ED20 for Histamine Release” value was 10^-4 M.
For the molecule `CN1CCC(=C2c3ccccc3CCc3cccnc32)CC1` [Azatadine], the IC20 in the test with rat mucosal mast cell (setting [7]) came to 100 nM.
Turning to `CC(=O)[C@H]1CC[C@H]2[C@@H]3CCC4=CC(=O)CC[C@]4(C)[C@H]3CC[C@]12C` [progesterone], the “binding to RBL cells” value in [5] is on record as “bind”.
Regarding `CCNC(=O)[C@@H]1CCCN1C(=O)[C@H](CCCNC(=N)N)NC(=O)[C@H](CC(C)C)NC(=O)[C@@H](CC(C)C)NC(=O)[C@H](Cc1ccc(O)cc1)NC(=O)[C@H](CO)NC(=O)[C@H](Cc1c[nH]c2ccccc12)NC(=O)[C@H](Cc1c[nH]cn1)NC(=O)[C@@H]1CCC(=O)N1` [LUPRON, leuprolide acetate], the “symptoms of abdominal migraine” value in the test with abdominal migraine [6] is given as “symptom-free”.
For `CC/C(=C(\c1ccccc1)c1ccc(OCCN(C)C)cc1)c1ccccc1` [tamoxifen citrate], the pain result in the test on irritable bowel syndrome (40 mg/day orally) is reported as “substantially eliminated their pain”.
